The values that follow come from patent US20230078764A1 (Yumanity Therapeutics, Inc., priority 2019, published 2023).

Each structure is given as a SMILES string.

As usually defined, the IC50 is the concentration needed to halve the response being measured.

Test [1] addresses T1, human SCD5 (Homo sapiens, UniProt Q86SK9).
T1 construct: expressed in transfected cells; host or cells: yeast strain with OLE1 deleted, plasmid-borne human SCD5 (selected in SD-Ura)
T1 sequence (Q86SK9 1-330): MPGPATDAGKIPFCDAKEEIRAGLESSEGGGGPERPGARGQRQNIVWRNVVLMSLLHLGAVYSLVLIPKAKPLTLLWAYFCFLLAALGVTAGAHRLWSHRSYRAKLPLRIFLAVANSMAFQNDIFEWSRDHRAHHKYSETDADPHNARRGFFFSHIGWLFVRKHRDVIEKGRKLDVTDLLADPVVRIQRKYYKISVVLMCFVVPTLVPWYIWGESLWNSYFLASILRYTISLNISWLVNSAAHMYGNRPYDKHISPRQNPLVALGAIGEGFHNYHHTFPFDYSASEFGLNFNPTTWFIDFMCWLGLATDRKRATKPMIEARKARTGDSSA
The experiment in a line: Growth inhibition of yeast strain expressing human SCD5 as sole desaturase (OLE1 deleted), OD600 readout. Format: cell-based. Conditions: yeast strain expressing human SCD5 as sole desaturase; growth (OD600) after 40 h at 30° C.; read-out: SCD5 IC50.

The target in test [2] is T2, human SCD1 (Homo sapiens, UniProt O00767).
T2 construct: expressed in transfected cells; host or cells: yeast strain with OLE1 deleted, plasmid-borne human SCD1 (selected in SD-Ura)
T2 sequence (O00767 1-359): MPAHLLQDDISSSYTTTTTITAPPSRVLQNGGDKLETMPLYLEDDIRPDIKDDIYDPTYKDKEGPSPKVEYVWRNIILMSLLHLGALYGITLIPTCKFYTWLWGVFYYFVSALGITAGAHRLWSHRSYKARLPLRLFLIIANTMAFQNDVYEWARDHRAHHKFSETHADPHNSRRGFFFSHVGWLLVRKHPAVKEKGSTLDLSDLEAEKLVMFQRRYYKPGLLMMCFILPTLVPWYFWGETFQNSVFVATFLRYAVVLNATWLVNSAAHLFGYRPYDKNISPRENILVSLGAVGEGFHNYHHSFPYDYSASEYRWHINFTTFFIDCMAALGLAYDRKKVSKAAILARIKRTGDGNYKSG
Kind of test: Growth inhibition of yeast strain expressing human SCD1 as sole desaturase (OLE1 deleted), OD600 readout. Conditions: yeast strain expressing human SCD1 as sole desaturase; growth (OD600) after 40 h at 30° C.; read-out: SCD1 IC50. Format: cell-based.

In the case of `O=C(Nc1ccc(Cc2ccc(F)c(F)c2)cn1)c1ccnnc1` [Compound 621], the concentration for half-maximal inhibition (IC50) turned out to be 25 nM in test [1] and 35 nM in test [2].

Take `O=C(Nc1ccc(Cc2cc(F)cc(F)c2)cn1)c1ccnnc1` [Compound 622]: the IC50 was 16 nM in test [1] and 23 nM in test [2].

With `Cc1cc(C(=O)Nc2ccc(Cc3cccc(F)c3)cn2)cn(C)c1=O` [Compound 623], the IC50 in test [1] was determined as 19 nM; in test [2], 232 nM.

With `Cc1cc(C(=O)Nc2ccc(Cc3cccc(F)c3)cn2)c(=O)n(C)n1` [Compound 624], the values for the IC50 in test [1] and in test [2] were 54 nM and > 45000 nM, respectively.

As to `Cn1cc(NC(=O)c2ncc(Cc3ccc(F)c(F)c3)cc2F)ccc1=O` [Compound 625], the half-inhibitory concentration (IC50) in test [1] amounted to 310 nM; in test [2] it was 4800 nM.

Take `Cn1nc(C(=O)Nc2ccc(Cc3cc(Cl)cc(C#N)c3)cn2)ccc1=O` [Compound 626]: the half-inhibitory concentration (IC50) in test [1] was 14 nM; in test [2], > 45000 nM.

For `N#Cc1cnc(NC(=O)c2ccc(Cc3cccc(F)c3)cn2)nc1` [Compound 627], the values for the IC50 in test [1] and in test [2] were 10 nM and 327 nM, respectively.

With `N#Cc1cc(F)cc(Cc2ccc(NC(=O)c3cncc(CO)c3)nc2)c1` [Compound 628], the concentration for half-maximal inhibition (IC50) was 30 nM in test [1] and 190 nM in test [2].

Take `N#Cc1ccc(C(=O)Nc2ccc(Cc3cc(F)ccc3F)cn2)cn1` [Compound 629]: the IC50 in test [1] is 250 nM; in test [2], 3300 nM.

Consider `Cn1ccc(C(=O)Nc2ccc(Cc3cc(F)ccc3F)cn2)cc1=O` [Compound 630], for which the figures for the IC50 in test [1] and in test [2] were 320 nM and 1100 nM, respectively.

For `O=C(Nc1ncc(Br)cn1)c1ccc(Cc2cccc(F)c2)cn1` [Compound 631], the results for the half-inhibitory concentration (IC50) in test [1] and in test [2] were 2200 nM and 650 nM, respectively.

In the case of `O=C(Nc1ccc(Cc2cccc(F)c2)cn1)c1csc(Br)n1` [Compound 632], the IC50 in test [1] is 70 nM; in test [2] it was > 45000 nM.

Take `O=C(Nc1ccc(Cc2cccc(F)c2)cn1)c1cscn1` [Compound 633]: the 50% inhibitory concentration (IC50) came to 270 nM in test [1] and 1800 nM in test [2].

Regarding `COc1cc(Cc2ccc(NC(=O)c3cnc(Cl)cn3)nc2)ccc1F` [Compound 634], the IC50 in test [1] was 280 nM; in test [2] it was > 45000 nM.

As to `O=C(Nc1ccc(Cc2cc(F)cc(F)c2)cn1)c1cnc(Cl)cn1` [Compound 635], the half-maximal inhibitory concentration (IC50) in test [1] was 62 nM; in test [2] it was > 45000 nM.

As for `N#Cc1cnc(C(=O)Nc2ccc(Cc3cccc(F)c3)cn2)c(F)c1` [Compound 636], the results for the half-inhibitory concentration (IC50) in test [1] and in test [2] were 142 nM and > 45000 nM, respectively.

`O=C(Nc1ccc(C=C2CCOCC2)cn1)c1ccc(CO)nc1` [Compound 637]: the half-maximal inhibitory concentration (IC50) in test [1] amounted to 8100 nM; in test [2] it was 12000 nM.

Turning to `COc1cc(Cc2ccc(NC(=O)c3cnc(C#N)cn3)nc2)ccc1F` [Compound 638], the IC50 in test [1] worked out at 98 nM; in test [2] it was 3200 nM.

With `N#Cc1cnc(C(=O)Nc2ccc(Cc3cc(F)cc(F)c3)cn2)cn1` [Compound 639], the IC50 in test [1] stood at 39 nM; in test [2] it was 490 nM.

For the compound `N#Cc1nc(C(=O)Nc2ccc(Cc3cccc(F)c3)cn2)cs1` [Compound 640], the IC50 in test [1] stood at 1300 nM; in test [2], 3200 nM.

With `Cn1nc(C(=O)Nc2ccc(Cc3cc(C#N)ccc3F)cn2)ccc1=O` [Compound 641], the IC50 in test [1] is 540 nM; in test [2], > 45000 nM.

Turning to `Cn1cc(C(=O)Nc2ccc(Cc3cccc(F)c3)cn2)n(C)c1=O` [Compound 642], the values for the IC50 in test [1] and in test [2] were 10 nM and 92 nM, respectively.

Consider `Cn1cc(C(=O)Nc2ccc(Cc3ccc(F)c(F)c3)cn2)n(C)c1=O` [Compound 643], for which the IC50 in test [1] was determined as 10 nM; in test [2], 72 nM.

Regarding `Cn1cc(C(=O)Nc2ccc(Cc3cc(F)cc(F)c3)cn2)n(C)c1=O` [Compound 644], the IC50 came out at 10 nM in test [1] and 42 nM in test [2].

On to `O=C(Nc1ccc(Cc2cccc(F)c2)cn1)c1coc(Cl)n1` [Compound 645], for which the concentration for half-maximal inhibition (IC50) is 210 nM in test [1] and 1300 nM in test [2].

On to `N#Cc1cc(F)cc(Cc2ccc(NC(=O)c3cnc(Cl)cn3)nc2)c1` [Compound 646], for which the results for the half-maximal inhibitory concentration (IC50) in test [1] and in test [2] were 140 nM and > 45000 nM, respectively.

Regarding `Cn1cc(C(=O)Nc2ccc(C3(c4ccc(F)c(F)c4)CC3)cn2)ccc1=O` [Compound 647], the half-maximal inhibitory concentration (IC50) in test [1] is 2400 nM; in test [2] it was 9300 nM.

Regarding `Cn1cc(C(=O)Nc2ccc(Cc3cc(C#N)ccc3F)cn2)ccc1=O` [Compound 648], the figures for the IC50 in test [1] and in test [2] were 990 nM and > 45000 nM, respectively.

As to `COc1ncc(C(=O)Nc2ccc(Cc3cccc(Cl)c3)cn2)cn1` [Compound 649], the concentration for half-maximal inhibition (IC50) turned out to be 480 nM in test [1] and 1400 nM in test [2].

For the compound `O=C(Nc1ccc(Cc2ccc(F)c(F)c2)cn1)c1ccncc1` [Compound 650], the IC50 in test [1] was determined as 56 nM; in test [2] it was 170 nM.

For the compound `O=C(Nc1ccc(Cc2cc(F)cc(F)c2)cn1)c1ccncc1` [Compound 651], the concentration for half-maximal inhibition (IC50) in test [1] is 24 nM; in test [2], 90 nM.

For `Cn1cc(C(=O)Nc2ccc(Cc3cccc(Cl)c3)cn2)cnc1=O` [Compound 652], the figures for the 50% inhibitory concentration (IC50) in test [1] and in test [2] were 86 nM and 1900 nM, respectively.

For the compound `Cn1nc(C(=O)Nc2ccc(C3(c4ccc(F)c(F)c4)CC3)cn2)ccc1=O` [Compound 653], the figures for the IC50 in test [1] and in test [2] were 1400 nM and > 45000 nM, respectively.

With `N#Cc1cnc(C(=O)Nc2ccc(Cc3ccc(F)c(C#N)c3)cn2)cn1` [Compound 654], the figures for the concentration for half-maximal inhibition (IC50) in test [1] and in test [2] were 56 nM and 1900 nM, respectively.

For the compound `N#Cc1cc(F)cc(Cc2ccc(NC(=O)c3cnc(C#N)cn3)nc2)c1` [Compound 655], the concentration for half-maximal inhibition (IC50) in test [1] amounted to 35 nM; in test [2] it was 360 nM.

For the compound `N#Cc1cc(F)cc(Cc2ccc(NC(=O)c3ccnnc3)nc2)c1` [Compound 656], the IC50 was 110 nM in test [1] and 220 nM in test [2].

Take `O=C(Nc1ccc(Cc2cc(F)cc(F)c2)cn1)c1cnnc(Cl)c1` [Compound 657]: the half-maximal inhibitory concentration (IC50) in test [1] and in test [2] was 10 nM each time.

Consider `Cn1nc(C(=O)Nc2ccc(COc3cc(F)cc(F)c3)cn2)ccc1=O` [Compound 658], for which the IC50 in test [1] is 180 nM; in test [2], 1600 nM.

As for `O=C(Nc1ccc(Cc2cc(F)cc(Cl)c2)cn1)c1cnc(Cl)cn1` [Compound 659], the half-maximal inhibitory concentration (IC50) in test [1] came to 55 nM; in test [2], 350 nM.

`Cn1cc(C(=O)Nc2ccc(N3CC(Oc4cccc(Cl)c4)C3)cn2)ccc1=O` [Compound 660]: the IC50 in test [1] was 8900 nM; in test [2], > 45000 nM.

As for `N#Cc1cnc(C(=O)Nc2ccc(Cc3cc(F)cc(Cl)c3)cn2)cn1` [Compound 661], the IC50 came to 10 nM in test [1] and 180 nM in test [2].

In the case of `N#Cc1cc(C(=O)Nc2ccc(Cc3cc(F)cc(F)c3)cn2)cnn1` [Compound 662], the values for the IC50 in test [1] and in test [2] were 180 nM and 300 nM, respectively.

Take `Cc1cc(C(=O)Nc2ccc(Cc3cc(F)cc(C#N)c3)cn2)cnc1C#N` [Compound 663]: the half-inhibitory concentration (IC50) in test [1] was 39 nM; in test [2], > 45000 nM.

In the case of `Cn1nc(C(=O)Nc2ccc(COc3ccc(F)c(F)c3)cn2)ccc1=O` [Compound 664], the IC50 stood at 900 nM in test [1] and 31000 nM in test [2].

As to `Cc1cc(C(=O)Nc2ccc(Cc3cc(F)cc(C#N)c3)cn2)cnc1Cl` [Compound 665], the IC50 is 490 nM in test [1] and > 45000 nM in test [2].

Turning to `N#Cc1cc(F)cc(Cc2ccc(NC(=O)c3ccnc(Cl)n3)nc2)c1` [Compound 666], the IC50 is 290 nM in test [1] and 3600 nM in test [2].

As for `Cn1nc(C(=O)Nc2ccc(COc3ccc(Cl)c(F)c3)cn2)ccc1=O` [Compound 667], the IC50 was 310 nM in test [1] and > 45000 nM in test [2].

As for `Cn1cc(C(=O)Nc2ccc(Cc3cc(F)cc(Cl)c3)cn2)n(C)c1=O` [Compound 668], the IC50 in test [1] and in test [2] was 10 nM in each case.

`N#Cc1cc(Cl)cc(Cc2ccc(NC(=O)c3ccnnc3)nc2)c1` [Compound 669]: the IC50 in test [1] is 73 nM; in test [2] it was 220 nM.

`Cn1nc(C(=O)Nc2ccc(COc3ccc(Cl)cc3)cn2)ccc1=O` [Compound 670]: the figures for the IC50 in test [1] and in test [2] were 1800 nM and > 45000 nM, respectively.

Turning to `Cn1nc(C(=O)Nc2ccc(COc3cc(Cl)cc(C#N)c3)cn2)ccc1=O` [Compound 671], the IC50 in test [1] was 2000 nM; in test [2] it was > 45000 nM.

With `Cn1cc(C(=O)Nc2ccc(Cc3cc(F)cc(F)c3)cn2)ncc1=O` [Compound 672], the 50% inhibitory concentration (IC50) in test [1] is 420 nM; in test [2], 500 nM.

For `CNC(=O)c1ccnc(C(=O)Nc2ccc(Oc3ccccc3Cl)cn2)c1` [Compound 675], the concentration for half-maximal inhibition (IC50) in test [1] was 12000 nM; in test [2], > 45000 nM.
